Results from US10532066B2, “Surfactant lipids, compositions thereof, and uses thereof” (National Jewish Health, priority 2007, dated 2020).

Assays:
[1] = test system: primary rat alveolar macrophages; test: LPS-induced NO production by rat alveolar macrophages; type: cell-based; details: LPS 10 ng/ml, 24 h, liposomes; LPS without phospholipid = 100%
Protocol: (§1) FIG. 1. Anionic phospholipids inhibit inflammatory mediator production induced by LPS. Liposomes composed of sphingomyelin (SM), phosphatidylethanolamine (PE) dipalmitoyl-phosphatidylcholine ((DPPC), phosphatidylserine (PS), palmitoyl-oleoyl-phosphatidylglycerol (POPG) and phosphatidylinositol (PI) were formed by bath-sonication for 30 min at room temperature. LPS (10 ng/ml) and different concentrations of phospholipids were added to monolayer cultures of differentiated U937 cells (A), or primary rat alveolar macrophages (B). At 6 h after stimulation, media were collected and secreted TNF-α levels were determined in U937 cultures. NO production was determined 24 h after stimulating rat alveolar macrophages. LPS stimulation in the absence of phospholipid was set as 100%. […] The average TNF-α production upon LPS stimulation was (8.0±0.54 ng/ml). The average NO production upon LPS stimulation was 12.17±0.27 μM.
(§2) FIG. 2. The inhibitory effect of phosphatidylglycerols on LPS-induced inflammatory mediator production is molecular species specific. PG liposomes were formed by bath-sonication for 30 min at room temperature. LPS (10 ng/ml) and different concentrations of PG were added to monolayer cultures of differentiated U937 cells (A) or rat alveolar macrophages (B). Media TNF-α measurements were performed 6 h after stimulation. Media NO measurements were performed 24 h after stimulation. LPS stimulation without PG was set at 100%. The molecular species of PG shown on the graph are 8:0; dioctanoyl-phosphatidylglycerol, 12:0; dilauroyl-phosphatidylglycerol (DLPG), 14:0; dimyristoyl-phosphatidylglycerol (DMPG), 16:0; dipalmitoyl-phosphatidylglycerol (DPPG), 18:0; distearoyl-phosphatidylglycerol, 16:0/18:1; palmitoyl-oleoyl-phosphatidylglycerol (POPG). […] The average TNF-α production upon LPS stimulation was 11.3±0.7 ng/ml. The average NO production upon LPS stimulation was 10.1±0.6 μM.
Rat alveolar macrophages were isolated from bronchoalveolar lavage fluid (BALF) of Sprague-Dawley rats. The lungs were lavaged with pyrogen-free saline, and alveolar macrophages were sedimented by centrifugation at 150×g×5 min. Isolated macrophages were plated at 5×10^5 cells/well in 24-well plates (Falcon) in RPMI 1640 medium containing 10% BGS. The cells were allowed to adhere for 2 h and then used for the experiments after washing with phosphate-buffered-saline (PBS) to remove the unattached cells.
Nitric oxide (NO) accumulation in the supernatant was determined as previously reported (28). Briefly, rat alveolar macrophages were stimulated with LPS (10 ng/ml) or LPS plus phospholipids for 24 h. Culture supernatants (usually […]) were combined with an equal volume of Greiss reagent, and the samples were incubated at room temperature for 10 min before the absorbance was quantified at 550 nm. With the use of a standard curve, the nmol of NO produced were determined and normalized to total cell number in each sample.

[2] = test system: differentiated U937 cells; test: LPS-induced TNF-α secretion by differentiated U937 cells; type: cell-based, human; details: LPS 10 ng/ml, 6 h, liposomes; LPS without phospholipid = 100%
Protocol: as §1, §2
FIG. 3. […] Surfactant lipid (SL) and POPG were dried under nitrogen, and hydrated at 37° C. for 1 h. (A) SL and POPG were mixed in organic solvents prior to drying and hydrating and subsequently liposomes were produced. (B) SL and POPG were made as independent populations of liposomes that were subsequently mixed prior to macrophage treatment. 10 ng/ml of LPS and different concentrations of liposome mixtures were added to monolayer cultures of differentiated U937 cells. 6 h after stimulation, media were collected and TNF-α production was determined. LPS stimulation without phospholipid was set as 100%. […] The average TNF-α production upon LPS stimulation was 7.0±0.2 ng/ml.
U937 cells were induced to differentiate by treatment with 10 nM phorbol myristate acetate (PMA) for 48 h. The cells (1.3×10^5/well) were placed in 96-well plates and further incubated in the absence of PMA for 24 h in RPMI 1640 medium containing 10% BGS. Rat alveolar macrophages (5×10^5/well) were incubated in 24-well plates for 2 h after isolation. The indicated concentration of phospholipids was added to the cultures 30 min before adding LPS. After LPS addition cultures were incubated for 6 h at 37° C. at an atmosphere of 95% air and 5% CO2. At the end of the incubation period the medium was collected and assayed for TNF-α concentrations using an ELISA kit.
Surfactant lipids were isolated from the bronchioalveolar lavage of Sprague-Dawley rats, 28 days after intratracheal instillation of 25 mg of silica (˜125 mg/kg). Initially, the surfactant was purified by the method of Hawgood et. al. (25) using NaBr density gradient centrifugation. The purified surfactant was extracted with butanol (26) and segregated into butanol-soluble and -insoluble material.

U937 macrophages = test: TNFα in U937 macrophages stimulated with smooth LPS, with SP-A and PtdGro; type: cell-based; details: 100 ng/ml smooth LPS, 6 hours, lipid 20 μg/ml
Protocol: U937 macrophages were stimulated with 100 ng/ml smooth LPS for 6 hours. The culture medium was harvested and assayed for the presence of TNFα by ELISA. Control cultures received no additions. SP-A was added as indicated at 10 μg/ml. Saturated-(16:0/16:0)-PtdGro was added at 20 μg/ml. Unsaturated-(18:1/18:1)-PtdGro was added at 20 μg/ml.

Compound | LPS-induced NO production [1] | LPS-induced TNF-α production [2] | anti-inflammatory effects on LPS stimulated macrophages (TNFα) (U937 macrophages)
CCCCCCCC(=O)OCC(COP(=O)(O)OCC(O)CO)OC(=O)CCCCCCC (stereo not drawn) [8:0, dioctanoyl-phosphatidylglycerol] | failed to antagonize | failed to antagonize | 
CCCCCCCCCCCC(=O)OCC(COP(=O)(O)OCC(O)CO)OC(=O)CCCCCCCCCCC (stereo not drawn) [12:0, dilauroyl-phosphatidylglycerol] |  | modest antagonists | 
CCCCCCCCCCCCCCCCCC(=O)OCC(COP(=O)(O)OCC(O)CO)OC(=O)CCCCCCCCCCCCCCCCC (stereo not drawn) [18:0, distearoyl-phosphatidylglycerol] | failed to antagonize | failed to antagonize | 
CCCCCCCC/C=C\CCCCCCCC(=O)OC[C@H](COP(=O)(O)OCC(O)CO)OC(=O)CCCCCCC/C=C\CCCCCCCC (stereo partly drawn) [unsaturated-PtdGro, dioleoyl-phosphatidylglycerol] |  |  | potent anti-inflammatory effects
phosphatidylethanolamine [PE] | no significant effect | no significant effect | 
phosphatidylserine [PS] | less effective than PI and POPG | less effective than PI and POPG | 
sphingomyelin [SM] | no significant effect | no significant effect | 
